pIC50: −log10 of the molar value.
Target: T1, human HSL (Homo sapiens, UniProt Q05469)
T1 construct: generate a full length human HSL ORF with a 3′-His6 tag; made in house; host or cells: High 5 insect cells (baculovirus, pFast-BAC)
T1 sequence (Q05469 1-1076): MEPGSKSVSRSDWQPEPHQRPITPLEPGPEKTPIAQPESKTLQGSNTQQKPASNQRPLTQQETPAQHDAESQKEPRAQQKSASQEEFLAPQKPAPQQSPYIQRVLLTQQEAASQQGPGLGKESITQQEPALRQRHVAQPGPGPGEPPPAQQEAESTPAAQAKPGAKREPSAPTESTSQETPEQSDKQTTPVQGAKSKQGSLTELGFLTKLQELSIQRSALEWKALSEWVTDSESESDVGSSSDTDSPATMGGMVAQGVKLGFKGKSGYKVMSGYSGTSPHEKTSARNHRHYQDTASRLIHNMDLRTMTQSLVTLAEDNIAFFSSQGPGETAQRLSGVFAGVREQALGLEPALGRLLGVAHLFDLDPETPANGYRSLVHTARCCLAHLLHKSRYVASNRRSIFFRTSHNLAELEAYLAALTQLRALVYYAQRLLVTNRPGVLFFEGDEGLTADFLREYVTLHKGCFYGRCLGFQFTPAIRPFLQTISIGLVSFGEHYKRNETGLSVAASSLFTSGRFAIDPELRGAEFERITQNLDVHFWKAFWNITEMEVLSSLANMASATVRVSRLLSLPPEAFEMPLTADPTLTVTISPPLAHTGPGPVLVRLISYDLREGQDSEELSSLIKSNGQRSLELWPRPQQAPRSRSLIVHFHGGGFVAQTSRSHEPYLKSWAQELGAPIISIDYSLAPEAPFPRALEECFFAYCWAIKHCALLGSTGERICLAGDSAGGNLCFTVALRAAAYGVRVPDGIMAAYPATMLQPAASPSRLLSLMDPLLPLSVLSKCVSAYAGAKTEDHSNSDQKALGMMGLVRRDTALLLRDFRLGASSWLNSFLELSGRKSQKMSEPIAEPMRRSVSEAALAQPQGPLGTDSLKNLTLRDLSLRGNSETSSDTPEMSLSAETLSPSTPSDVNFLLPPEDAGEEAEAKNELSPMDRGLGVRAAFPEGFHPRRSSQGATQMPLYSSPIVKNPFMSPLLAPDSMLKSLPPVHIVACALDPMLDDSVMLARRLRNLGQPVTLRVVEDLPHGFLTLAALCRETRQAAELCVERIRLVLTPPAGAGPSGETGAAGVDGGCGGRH
Assay: Human Hormone-Sensitive Lipase (HSL) enzyme inhibition assay (colorimetric, DMPT substrate)
Type: biochemical
Conditions: human full length HSL-His6, 2,3-dimercapto-1-propanol tributyrate substrate, 37° C. 20 minutes, absorbance at 405 nm; read-out: HSL hum IC50
Experimental: Production of Human Full Length Hormone Sensitive Lipase-His^6:
1) Cloning: cDNA was prepared from commercial human brain polyA+ RNA and used as a template in overlapping PCR to generate a full length human HSL ORF with a 3′-His6 tag. This full length insert was cloned into the pFast-BAC vector and the DNA-sequence of several single clones was verified. DNA from a correct full length clone with the 3′His6 tag was used to transform the E. coli strain DH10BAC. Resulting bacmid DNA was used to generate a titered baculovirus stock for protein generation. The sequence of the encoded HSL conforms to Swissprot entry Q05469, with the additional C-terminal His6-tag. 2) Protein purification: Culture: 5.5 L, High 5 cells expressing human full length HSL-His^6, 48 hr., containing 25 μM E-64. Cell count: […], 90% viable. Cells were thawed. On ice, cells were suspended in Base Buffer containing 10% glycerol, 25 mM Tris-Cl, 300 mM NaCl, 10 mM imidazole, 10 mM 2-mercaptoethanol, 2 μg pepstatin/ml, 2 μg leupeptin/ml, 2 μg antipain/ml, pH 8.0 at 4° C. in a final volume of 475 ml with 3.75×10^7 cells/ml. […] was done at 3×30 sec., Lubrol PX was added to 0.2% final concentration followed by stirring for 15 min. at 4° C. and centrifugation at 25 k×g, 60 min., 4° C. Soluble proteins were mixed with 60 ml of pre-washed and equilibrated Ni-NTA Agarose (Qiagen 30210) followed by tumbling end-over-end, 45 min., 4° C., centrifugation 1000 rpm 5 min and letting resin settle 5 min. Supernatant was removed, the resin washed in the centrifuge vessel using 5 volumes of Base Buffer containing 0.2% Lubrol PX. Centrifugation was done again, then the supernatant discarded. The resin was poured onto a 0.8 μm membrane in a disposable filter unit (Nalge 450-0080), and washed with 5 volumes of Base Buffer containing 0.2% Lubrol PX. It was then washed with 30 volumes of Base Buffer containing 60 mM imidazole pH 7.5 at 4° C. The protein was eluated with 5 volumes of 25 mM Tris-Cl, 300 mM NaCl, 200 mM imidazole, 10 mM 2-mercaptoethanol, pH 7.5 at 4° C. by tumbling resin with buffer end-over-end, 30 min., 4° C. The resin was captured on a 0.2 μm membrane disposable filter unit (Millipore SCGP U02 RE) and the eluate collected in the reservoir. The eluate was concentrated using a 30 k MWCO centrifugal filter device (Sartorius Vivascience Vivacell 100, VC1022), to 20 ml. It was then dialyzed overnight at 4° C., two times against 2 L of 10% glycerol, 25 mM Tris-Cl, 300 mM NaCl, 0.2 mM EDTA, 0.2 mM DTT, pH 7.5 at 4° C. The protein was filtered using a 0.22 μm disposable filter unit (Millipore SCGP00525). The protein concentration was calculated from absorbance at 280 nm, using 280=0.67 cm-1 mg-1. Yield was 235 mg, total. The protein was stored at −80° C. Human Hormone-Sensitive Lipase (HSL) Enzyme Inhibition Assay:
HSL enzyme activity was measured by a colorimetric assay using 2,3-dimercapto-1-propanol tributyrate (Aldrich, St. Louis, Mo.) as a substrate. Typically, 1.5 mM 2,3-dimercapto-1-propanol tributyrate (DMPT) in 100 mM MOPS, pH 7.2, 0.2 mg/ml fatty acid-free BSA was prepared by sonication at 4° C. to homogenous suspension. Test compounds (2 mM stock in DMSO) were diluted 3 fold in series in DMSO. Compound solutions were diluted 24 fold in 1.5 mM DMPT containing solution and 18 ul per well was added to 384-well microplates (Corning Costar). Twelve microliters per well of human HSL (15 ug/ml) was added and the reaction mixture was incubated at 37° C. for 20 minutes. Six microliters of 12 mM dithio-bis-(2-nitrobenzoic acid) (DTNB) in DMSO plus 1.2% SDS and 0.6% Triton X-100 were added and the mixture was incubated at room temperature for 15 minutes. Product production was monitored by reading absorbance at 405 nm on an Envision Reader (PerkinElmer Life and Analytical Sciences, Shelton, Conn.).

Row | pIC50 | SMILES
1 | 7.10 | CNC(=O)O[C@H]1CC[C@@]2(CCN(c3ccc(OC(F)(F)F)cc3)C2=O)CC1 [Example 17, Methyl-carbamic acid [(5α,8β)-1-oxo-2-(4-trifluoromethoxy-phenyl)-2-aza-spiro[4.5]dec-8-yl]ester]
2 | 7.22 | O=C(NCCc1ccccc1)O[C@H]1CC[C@@]2(CCN(c3ccc(OC(F)(F)F)cc3)C2=O)CC1 [Example 18, Phenethyl-carbamic acid [(5α,8β)-1-oxo-2-(4-trifluoromethoxy-phenyl)-2-aza-spiro[4.5]dec-8-yl]ester]
3 | 6.85 | O=C1N(c2ccc(OC(F)(F)F)cc2)CC[C@]12CC[C@@H](Oc1cnccn1)CC2 [Example 19, (5α,8β)-8-(Pyrazin-2-yloxy)-2-(4-trifluoromethoxy-phenyl)-2-aza-spiro[4.5]decan-1-one]
4 | 7.00 | O=C1N(c2ccc(OC(F)(F)F)cc2)CC[C@]12CC[C@@H](Oc1ncccn1)CC2 [Example 20, (5α,8β)-8-(Pyrimidin-2-yloxy)-2-(4-trifluoromethoxy-phenyl)-2-aza-spiro[4.5]decan-1-one]
5 | 7.00 | Cc1ccc(O[C@H]2CC[C@@]3(CCN(c4ccc(OC(F)(F)F)cc4)C3=O)CC2)nn1 [Example 21, (5α,8β)-8-(6-Methyl-pyridazin-3-yloxy)-2-(4-trifluoromethoxy-phenyl)-2-aza-spiro[4.5]decan-1-one]
6 | 7.22 | O=C(NCC1CC1)O[C@H]1CC[C@@]2(CCN(c3ccc(OC(F)(F)F)cc3)C2=O)CC1 [Example 22, (Cyclopropylmethyl)-carbamic acid [(5α,8β)-1-oxo-2-(4-trifluoromethoxy-phenyl)-2-aza-spiro[4.5]dec-8-yl]ester]
7 | 6.72 | COCCO[C@H]1CC[C@@]2(CCN(c3ccc(OC(F)(F)F)cc3)C2=O)CC1 [Example 23, (5α,8β)-8-(2-Methoxy-ethoxy)-2-(4-trifluoromethoxy-phenyl)-2-aza-spiro[4.5]decan-1-one]
8 | 6.43 | CCO[C@H]1CC[C@@]2(CCN(c3ccc(OC(F)(F)F)cc3)C2=O)CC1 [Example 24, (5α,8β)-8-Ethoxy-2-(4-trifluoromethoxy-phenyl)-2-aza-spiro[4.5]decan-1-one]
9 | 7.10 | Cc1cnc(CNC(=O)O[C@H]2CC[C@@]3(CCN(c4ccc(OC(F)(F)F)cc4)C3=O)CC2)cn1 [Example 25, (5-Methyl-pyrazin-2-ylmethyl)-carbamic acid [(5α,8β)-1-oxo-2-(4-trifluoromethoxy-phenyl)-2-aza-spiro[4.5]dec-8-yl]ester]
10 | 6.96 | CC(C)(O)CNC(=O)O[C@H]1CC[C@@]2(CCN(c3ccc(OC(F)(F)F)cc3)C2=O)CC1 [Example 26, (2-Hydroxy-2-methyl-propyl)-carbamic acid [(5α,8β)-1-oxo-2-(4-trifluoromethoxy-phenyl)-2-aza-spiro[4.5]dec-8-yl]ester]
11 | 6.74 | O=C(NCCO)O[C@H]1CC[C@@]2(CCN(c3ccc(OC(F)(F)F)cc3)C2=O)CC1 [Example 27, (2-Hydroxy-ethyl)-carbamic acid [(5α,8β)-1-oxo-2-(4-trifluoromethoxy-phenyl)-2-aza-spiro[4.5]dec-8-yl]ester]
12 | 7.10 | O=C(NCc1cnccn1)O[C@H]1CC[C@@]2(CCN(c3ccc(OC(F)(F)F)cc3)C2=O)CC1 [Example 28, (Pyrazin-2-ylmethyl)-carbamic acid [(5α,8β)-1-oxo-2-(4-trifluoromethoxy-phenyl)-2-aza-spiro[4.5]dec-8-yl]ester]
13 | 7.10 | O=C(NC1CC1)O[C@H]1CC[C@@]2(CCN(c3ccc(OC(F)(F)F)cc3)C2=O)CC1 [Example 29, Cyclopropyl-carbamic acid [(5α,8β)-1-oxo-2-(4-trifluoromethoxy-phenyl)-2-aza-spiro[4.5]dec-8-yl]ester]
14 | 6.60 | NC(=O)O[C@H]1CC[C@@]2(CCN(c3ccc(OC(F)(F)F)cc3)C2=O)CC1 [Example 30, Carbamic acid [(5α,8β)-1-oxo-2-(4-trifluoromethoxy-phenyl)-2-aza-spiro[4.5]dec-8-yl]ester]
15 | 4.62 | COc1ccc(N2CC[C@]3(CC[C@H](O)CC3)C2=O)cc1 [Example 31, (5α,8α)-8-Hydroxy-2-(4-methoxy-phenyl)-2-aza-spiro[4.5]decan-1-one]
16 | 6.05 | CCc1ccc(N2CC[C@]3(CC[C@H](O)CC3)C2=O)cc1 [Example 32, (5α,8α)-2-(4-Ethyl-phenyl)-8-hydroxy-2-aza-spiro[4.5]decan-1-one]
17 | 5.22 | O=C1N(CCc2ccc(F)cc2)CC[C@]12CC[C@H](O)CC2 [Example 33, (5α,8α)-2-[2-(4-Fluoro-phenyl)-ethyl]-8-hydroxy-2-aza-spiro[4.5]decan-1-one]
18 | 6.10 | CCc1ccc(CCN2CC[C@]3(CC[C@H](O)CC3)C2=O)cc1 [Example 34, (5α,8α)-2-[2-(4-Ethyl-phenyl)-ethyl]-8-hydroxy-2-aza-spiro[4.5]decan-1-one]
19 | 4.78 | COc1ccc(CCN2CC[C@]3(CC[C@H](O)CC3)C2=O)cc1 [Example 35, (5α,8α)-8-Hydroxy-2-[2-(4-methoxy-phenyl)-ethyl]-2-aza-spiro[4.5]decan-1-one]
20 | 6.68 | CCCc1ccc(N2CC[C@]3(CC[C@H](O)CC3)C2=O)cc1 [Example 37, (5α,8α)-8-Hydroxy-2-(4-propyl-phenyl)-2-aza-spiro[4.5]decan-1-one]
21 | 6.62 | CC(C)c1ccc(N2CC[C@]3(CC[C@H](O)CC3)C2=O)cc1 [Example 38, (5α,8α)-8-Hydroxy-2-(4-isopropyl-phenyl)-2-aza-spiro[4.5]decan-1-one]

— patent publication US8440710B2, “HSL inhibitors useful in the treatment of diabetes” (Hoffmann-La Roche Inc., priority 2009, dated 2013)
